Laboratory results as given in US20250353873A1, “COMPOUNDS AND METHODS FOR MODULATING APOE EXPRESSION” (Ionis Pharmaceuticals, Inc., priority 2024, published 2025).
Strand notation (5' to 3'): a small letter for the sugar, then the base; units joined by * are phosphorothioate-linked, units joined directly phosphodiester-linked; [ ] holds rarer units or linkages, { } end groups; capitals alone tell only the bases. [ms] = mesyl phosphoramidate linkage; k = constrained ethyl (cEt); [5mC] = 5-methylcytosine; d = 2'-deoxy (DNA)

How the values were obtained:
human APOE RNA [1] = assay: Activity in APOE C57BL/6NTac-Apoeem7250 knock-in mice, single ICV bolus, 20 weeks (Example 13); type: in vivo; conditions: single ICV bolus 300 μg, 20 weeks post treatment, normalized to mouse Ppia
How it was run: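 Cortical and spinal cord RNA was assayed by real-time RT-PCR for human APOE, normalized to mouse Ppia and reported as percent of PBS controls. Tissue was taken twenty weeks after one 300 μg intracerebroventricular bolus in APOE knock-in mice, 4 per group.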

human APOE RNA [2] = assay: Dose-dependent inhibition of human APOE RNA in differentiated SH-SY5Y cells, free uptake, 5 days (Example 5); type: cell-based
How it was run: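 APOE RNA, measured by RTS3073 primer probe set and normalized to human PPIA, is reported as % of untreated control cells, with IC50 fitted. Cells were differentiated SH-SY5Y at 10,000/well, given modified oligonucleotide at several concentrations by free uptake for 5 days.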

human APOE RNA [3] = assay: Activity in APOE C57BL/6NTac-Apoeem7250 knock-in mice, single ICV bolus, 4 weeks (Example 10); type: in vivo; conditions: single ICV bolus 300 μg, 4 weeks post treatment, normalized to mouse Ppia
How it was run: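 Human APOE RNA, quantified by real-time RT-PCR with RTS3073 and normalized to mouse Ppia, was read in cortical brain and spinal cord 4 weeks post dosing. Dosing was a single ICV bolus of 300 μg per knock-in mouse; values are % of PBS-treated animals.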

human APOE RNA [4] = assay: Activity in APOE C57BL/6NTac-Apoeem7250 knock-in mice, single ICV bolus, 8 weeks (Example 11); type: in vivo
How it was run: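 Cortical and spinal cord human APOE RNA quantified by RT-qPCR 8 weeks after a single 300 μg ICV dose in knock-in mice, Ppia-normalized. Values are percent of levels in PBS-treated animals.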

human APOE RNA [5] = assay: Dose-dependent inhibition of human APOE RNA in HepG2 cells, electroporation, 50,000 cells per well, RT-PCR normalized to GAPDH (Example 4, Tables 8-10); type: cell-based; conditions: HepG2 cells, electroporation, Table 8
How it was run: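 Readout is percent APOE RNA versus untreated controls, measured by RT-PCR (primer probe set RTS3073) and normalized to human GAPDH. Modified oligonucleotides were delivered by electroporation at varying doses into HepG2 cells plated at 50,000 per well.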

Substance: ^mCksTksTksGdzGdzTdzGdzAdzAdzTds^mCdsTdsTdsTdsAdsTdsTksAksAdzAk (antisense k[5mC]*kT*kT*dG[ms]dG[ms]dT[ms]dG[ms]dA[ms]dA[ms]dT*d[5mC]*dT*dT*dT*dA*dT*kT*kA*dA[ms]kA) [Compound No. 1785602]
- APOE RNA (% control) Cortex (human APOE RNA [1]; cortex): 53 % control
- APOE RNA (% control) Spinal Cord (human APOE RNA [1]; spinal cord): 28 % control
- APOE RNA (% UTC) (human APOE RNA [2]; 5 nM, 5 days (Table 13)): 74 % UTC
- APOE RNA (% UTC) (human APOE RNA [2]; 5 nM, 5 days (Table 14)): 84 % UTC
- APOE RNA (% UTC) (human APOE RNA [2]; 13 nM, 5 days (Table 13)): 60 % UTC
- APOE RNA (% UTC) (human APOE RNA [2]; 13 nM, 5 days (Table 14)): 106 % UTC
- APOE RNA (% UTC) (human APOE RNA [2]; 33 nM, 5 days (Table 13)): 64 % UTC
- APOE RNA (% UTC) (human APOE RNA [2]; 33 nM, 5 days (Table 14)): 83 % UTC
- APOE RNA (% UTC) (human APOE RNA [2]; 82 nM, 5 days (Table 13)): 49 % UTC
- APOE RNA (% UTC) (human APOE RNA [2]; 82 nM, 5 days (Table 14)): 69 % UTC
- APOE RNA (% UTC) (human APOE RNA [2]; 205 nM, 5 days (Table 13)): 40 % UTC
- APOE RNA (% UTC) (human APOE RNA [2]; 205 nM, 5 days (Table 14)): 42 % UTC
- APOE RNA (% UTC) (human APOE RNA [2]; 512 nM, 5 days (Table 13)): 30 % UTC
- APOE RNA (% UTC) (human APOE RNA [2]; 512 nM, 5 days (Table 14)): 32 % UTC
- APOE RNA (% UTC) (human APOE RNA [2]; 1,280 nM, 5 days (Table 13)): 36 % UTC
- APOE RNA (% UTC) (human APOE RNA [2]; 1,280 nM, 5 days (Table 14)): 26 % UTC
- APOE RNA (% UTC) (human APOE RNA [2]; 3,200 nM, 5 days (Table 13)): 32 % UTC
- APOE RNA (% UTC) (human APOE RNA [2]; 3,200 nM, 5 days (Table 14)): 19 % UTC
- APOE RNA (% UTC) (human APOE RNA [2]; 8,000 nM, 5 days (Table 13)): 15 % UTC
- APOE RNA (% UTC) (human APOE RNA [2]; 8,000 nM, 5 days (Table 14)): 10 % UTC
- APOE RNA (% UTC) (human APOE RNA [2]; 20,000 nM, 5 days (Table 13)): 6 % UTC
- APOE RNA (% UTC) (human APOE RNA [2]; 20,000 nM, 5 days (Table 14)): 8 % UTC
- IC50 (human APOE RNA [2]; 5 days (Table 13)): 90 nM
- IC50 (human APOE RNA [2]; 5 days (Table 14)): 230 nM
- APOE RNA (% control) Cortex (human APOE RNA [3]; cortex): 34 % control
- APOE RNA (% control) Spinal Cord (human APOE RNA [3]; spinal cord): 33 % control
- reduction of human APOE RNA in the cortex (human APOE RNA [4]; APOE knock-in mouse model, 8 weeks post administration, assay of Example 11): 73%
- APOE RNA (% control) Cortex (human APOE RNA [4]; cortex, single ICV bolus 300 μg, 8 weeks post treatment, normalized to mouse Ppia): 27 % control
- APOE RNA (% control) Spinal Cord (human APOE RNA [4]; spinal cord, single ICV bolus 300 μg, 8 weeks post treatment, normalized to mouse Ppia): 26 % control
- APOE RNA (% UTC) 5 nM (human APOE RNA [5]; 24-hour treatment, 5 nM): 96 % UTC
- APOE RNA (% UTC) 13 nM (human APOE RNA [5]; 24-hour treatment, 13 nM): 109 % UTC
- APOE RNA (% UTC) 33 nM (human APOE RNA [5]; 24-hour treatment, 33 nM): 83 % UTC
- APOE RNA (% UTC) 82 nM (human APOE RNA [5]; 24-hour treatment, 82 nM): 64 % UTC
- APOE RNA (% UTC) 205 nM (human APOE RNA [5]; 24-hour treatment, 205 nM): 55 % UTC
- APOE RNA (% UTC) 512 nM (human APOE RNA [5]; 24-hour treatment, 512 nM): 27 % UTC
- APOE RNA (% UTC) 1,280 nM (human APOE RNA [5]; 24-hour treatment, 1,280 nM): 18 % UTC
- APOE RNA (% UTC) 3,200 nM (human APOE RNA [5]; 24-hour treatment, 3,200 nM): 11 % UTC
- APOE RNA (% UTC) 8,000 nM (human APOE RNA [5]; 24-hour treatment, 8,000 nM): 8 % UTC
- APOE RNA (% UTC) 20,000 nM (human APOE RNA [5]; 24-hour treatment, 20,000 nM): 4 % UTC
- IC50 (human APOE RNA [5]; reduction of human APOE RNA, 24-hour treatment): 220 nM
